On the set-up of series [1]: method as in Table I reference column. The note with it: not generated within this working group; ref Table I; cited from earlier work.
The nature of series [2]: Solubility measurement in aqueous buffer solutions. The following applies: for solubility: pH 6.5, aqueous buffer, thermodynamic from solid.
Description: (§1) The solubility of the drug substances was determined in biorelevant media as well as in aqueous buffers at different pH. Fasted state simulated gastric fluid (FaSSGF) ([37]), fasted state simulated intestinal fluid (FaSSIF-V2) ([38]), and fed state simulated intestinal fluid (FeSSIF-V2) ([39]) were prepared according to the instructions provided by Biorelevant (Biorelevant.com Ltd., London, UK). […] For neutral compounds, solubility was determined at pH 2, pH 4, and pH 7.
(§2) For freely soluble compounds, the extent of solubilization was measured only up to 10 mg/mL.
Details of series [3]: Food Effect (graded symbols): key to the marks not given beside the values. The following applies: cited from earlier work.
Series [4] is described as follows: PBPK food effect modeling (Simcyp V17.1 and/or GastroPlus V9.5; Model 1 / Model 2). The arrangement: species or system human.
The subject of a further series is Caco-2. The following applies: cited from earlier work.
The nature of series [5]: Effective human jejunum permeability (Peff,man) used in the PBPK model. It is filed as in vitro ADME.
Series [6] can be described thus: Solubility measurement in biorelevant media (FaSSIF-V2, FeSSIF-V2). The following applies: 37°C.
Description: as §1, §2
Setting [7] is: Model 2, fasted, ref published clinical data (Table I).
Where [8] appears, read: Model 2, fed, ref published clinical data (Table I).
Setting [9] is: Model 2, ref published clinical data (Table I).
The mark [10] stands for this setting: direction, AUC and/or Cmax ratio fed to fasted, BE criteria 0.8–1.25, ref drug label.
Where [11] appears, read: Model 1, fasted, ref published clinical data (Table I).
[12] abbreviates: Model 1, fed, ref published clinical data (Table I).
Where [13] appears, read: Model 1, ref published clinical data (Table I).

≈ marks a conversion by molar mass, not a printed value. Where two headings read alike, the source gives them in different places.

Consider three compounds from paper PMC7520419 (The AAPS Journal, 2020).

What is called solubility is the concentration that dissolves in the medium under given conditions. One may read the pKa as the pH at which an ionisable group is half protonated. Consider `CC(C)(C)c1nc(-c2cccc(NS(=O)(=O)c3c(F)cccc3F)c2F)c(-c2ccnc(N)n2)s1` [Dabrafenib], for which, in series [1], the FaSSIF solubility is listed as 6.2^^ μg/ml and the FeSSIF solubility is 6.8^^ μg/ml. For the same compound, the concentration in solution in series [2] (solubility) was 1 µg/mL (≈ 0.00192 mM). In series [3] (setting [7]), the “Observed AUC(0-inf) Fasted” value is 12100 ng·h/mL and the “Observed Cmax Fasted” value was 2160 ng/mL. In series [3] (setting [8]), the “Observed AUC(0-inf) Fed” value was 8470 ng·h/mL and the “Observed Cmax Fed” value was 1070 ng/mL. Moreover, in series [3] (setting [9]), the “Observed AUC Ratios (Fed/Fasted)” value was 0.70 and the “Observed Cmax Ratios (Fed/Fasted)” value is given as 0.49. Moreover, in series [3] (setting [10]), the Food Effect entry is reported as “Negative (negative if ratio fasted > fed)”. The compound further displayed a pKa in the series “pKa” (pKa (a, acidic)) of 6.6. In “pKa” (pKa (b, basic)), the pKa came to 2.2.

The Solubility is the concentration that dissolves in the medium under given conditions. In the case of `Cl.O=C1Cc2cc(CCN3CCN(c4nsc5ccccc45)CC3)c(Cl)cc2N1` [Ziprasidone HCl], in series [4] (Model 2), the “AUC Ratio of Ratios (Sim'd / Obs'd)” value is given as 1.05 and the “Cmax Ratio of Ratios (Sim'd / Obs'd)” value amounted to 0.88. Further, the “Solubility at pH 6.5” value in series [2] (room temperature) is 1 μg/ml. In series [3] (human, in vivo), the “Food Effect (graded symbols)” value was “++”, the “Observed AUC Ratios (Fed/Fasted)” value was 2.01, the “Observed AUC(0-inf) Fasted” value was 950 ng·h/mL and the “Observed AUC(0-inf) Fed” value was 1910 ng·h/mL. In addition, in series [3] (human, in vivo), the “Observed Cmax Fasted” value was 84 ng/mL, the “Observed Cmax Fed” value was 165 ng/mL and the “Observed Cmax Ratios (Fed/Fasted)” value was 1.96. Further, the “Apparent permeability (Caco-2)” value in the series with Caco-2 (Caco-2) is given as 12.3 (Caco-2)^^ × 10^−6 cm/s. In series [5], this compound registered an Effective permeability of 230 ×10⁻⁶ cm/s. In series [6], this compound showed a FaSSIF solubility of 4 µg/mL and a FeSSIF solubility of 13 µg/mL.

In the case of `NNC(=O)c1ccncc1` [Isoniazid], the results for the “AUC Ratio of Ratios (Sim'd / Obs'd)” value in series [4] (Model 1) and in series [4] (Model 2) were 1.08 and 0.91, respectively. Further, the “Cmax Ratio of Ratios (Sim'd / Obs'd)” value was determined as 1.48 in series [4] (Model 1) and 1.46 in series [4] (Model 2). In series [2], this compound registered a solubility of 128000 µg/mL (≈ 933 mM). Moreover, the entries for the “Observed AUC(0-inf) Fasted” value in series [3] (setting [11]) and in series [3] (setting [7]) were 24600 ng·h/mL and 18500 ng·h/mL, respectively. Moreover, the entries for the “Observed Cmax Fasted” value in series [3] (setting [11]) and in series [3] (setting [7]) were 5000 ng/mL and 5870 ng/mL, respectively. Also, the “Observed AUC(0-inf) Fed” value was 19500 ng·h/mL in series [3] (setting [12]) and 14800 ng·h/mL in series [3] (setting [8]). For the same compound, the “Observed Cmax Fed” value in series [3] (setting [12]) was 2500 ng/mL; in series [3] (setting [8]) it was 2730 ng/mL. Moreover, the “Observed AUC Ratios (Fed/Fasted)” value in series [3] (setting [13]) is 0.79; in series [3] (setting [9]), 0.80. In addition, the “Observed Cmax Ratios (Fed/Fasted)” value in series [3] (setting [13]) was 0.50; in series [3] (setting [9]), 0.47. Further, the “Food Effect” value is listed as “Negative (negative if ratio fasted > fed)” in series [3] (clinically observed PK change (AUC, Cmax) fed vs fasted, compiled by literature search) and “Negative (negative if ratio fasted > fed)” in series [3] (setting [10]). For the same compound, the “Apparent permeability (Caco-2)” value with Caco-2 (not generated within this working group, ref Table I) is given as 16 (Caco-2)^^ × 10^−6 cm/s. In the series “pKa” (pKa (b, basic)), this compound had a pKa of 1.8. Further, the Effective permeability in series [5] (human, 1 h) is 400 ×10⁻⁶ cm/s.
